Experimental data from patent US11802127B2, “3,4-dihydro-2,7-naphthyridine-1,6(2H,7H)-diones as MEK inhibitors” (Pfizer Inc., priority 2021, dated 2023).

How the values were obtained:
P-gp (MDR1) = biological target: T1, P-gp (MDR1) (Homo sapiens, UniProt P08183); test: Efflux ratio in MDR1 transfected LLC-PK1 cells; type: in vitro ADME; conditions: pig, Papp(B−A)/Papp(A−B)
T1 construct: expressed in transfected cells; host or cells: LLC-PK1 (porcine kidney) cells transfected with MDR1
Procedure: (§1) Both LLC-PK1 and MDR1 transfected LLC-PK1 cells were cultured and plated according to manufacturer's recommendations with the exception that the passage media contained only 2% fetal bovine serum to extend passage time out to seven days.
(§2) Both positive and negative controls were used to assess functionality of P-gp or BCRP efflux in the assays. Stock solutions for assay controls and the test article were prepared in DMSO for final test concentrations of 10 and 1 μM, respectively. Final organic concentration in the assay was 1%. All dosing solutions contained 10 μM lucifer yellow to monitor LLC-PK1 or MDCKII cell monolayer integrity.
(§3) For the apical to basolateral determination (A to B), 75 μL of the test article in transport buffer were added to the apical side of the individual transwells and 250 μL of basolateral media, without compound or lucifer yellow, were added to each well. For the basolateral to apical determination (B to A), 250 μL of test article in transport buffer were added to each well and 75 μL transport buffer, without compound or lucifer yellow, were added to each transwell. All tests were performed in triplicate, and each compound was tested for both apical to basolateral and basolateral to apical transport. The plates were incubated for 2 hours on a Lab-Line Instruments Titer Orbital Shaker (VWR, West Chester, PA) at 50 rpm and 37° C. with 5% CO2. All culture plates were removed from the incubator and 50 μL of media were removed from the apical and basolateral portion of each well and added to 150 μL of 1 μM labetalol in 2:1 acetonitrile (acetonitrile): H2O, v/v.
(§4) The plates were read using a Molecular Devices (Sunnyvale, CA) Gemini Fluorometer to evaluate the lucifer yellow concentrations at excitation/emission wavelengths of 425/535 nm. These values were accepted when found to be below 2% for apical to basolateral and 5% basolateral to apical flux across the MDR1-transfected LLC-PK1 or BCRP-transfected MDCKII cell monolayers. The plates were sealed and the contents of each well analyzed by LC-MS/MS. The compound concentrations were determined from the ratio of the peak areas of the compound to the internal standard (labetalol) in comparison to the dosing solution.
(§5) The LC-MS/MS system was comprised of an HTS-PAL autosampler (Leap Technologies, Carrboro, NC), an HP1200 HPLC (Agilent, Palo Alto, CA), and a MDS Sciex 4000 Q Trap system (Applied Biosystems, Foster City, CA). […] The total run time, including re-equilibration, for a single injection was 1.2 minutes. Mass spectrometric detection of the analytes was accomplished using the ion spray positive mode. Analyte responses were measured by multiple reaction monitoring (MRM) of transitions unique to each compound (the protonated precursor ion and selected product ions for each test article and m/z 329 to m/z 162 for labetalol, the internal standard).
(§6) An efflux ratio is calculated from the mean apical to basolateral (A−B) Papp data and basolateral to apical (B−A) Papp data: Efflux ratio=Papp(B−A)/Papp(A−B)

BCRP (hBCRP) = biological target: T2, BCRP (hBCRP) (Homo sapiens, UniProt Q9UNQ0); test: Efflux ratio in BCRP transfected MDCKII canine P-gp knockout cells; type: in vitro ADME; conditions: Papp(B−A)/Papp(A−B), read-out: Efflux ratio MDCKII-hBCRP knock-in,canine pg-P KO
T2 construct: expressed in transfected cells; host or cells: MDCKII (canine kidney) cells, canine P-gp knockout, transfected with BCRP
T2 sequence (Q9UNQ0 1-655): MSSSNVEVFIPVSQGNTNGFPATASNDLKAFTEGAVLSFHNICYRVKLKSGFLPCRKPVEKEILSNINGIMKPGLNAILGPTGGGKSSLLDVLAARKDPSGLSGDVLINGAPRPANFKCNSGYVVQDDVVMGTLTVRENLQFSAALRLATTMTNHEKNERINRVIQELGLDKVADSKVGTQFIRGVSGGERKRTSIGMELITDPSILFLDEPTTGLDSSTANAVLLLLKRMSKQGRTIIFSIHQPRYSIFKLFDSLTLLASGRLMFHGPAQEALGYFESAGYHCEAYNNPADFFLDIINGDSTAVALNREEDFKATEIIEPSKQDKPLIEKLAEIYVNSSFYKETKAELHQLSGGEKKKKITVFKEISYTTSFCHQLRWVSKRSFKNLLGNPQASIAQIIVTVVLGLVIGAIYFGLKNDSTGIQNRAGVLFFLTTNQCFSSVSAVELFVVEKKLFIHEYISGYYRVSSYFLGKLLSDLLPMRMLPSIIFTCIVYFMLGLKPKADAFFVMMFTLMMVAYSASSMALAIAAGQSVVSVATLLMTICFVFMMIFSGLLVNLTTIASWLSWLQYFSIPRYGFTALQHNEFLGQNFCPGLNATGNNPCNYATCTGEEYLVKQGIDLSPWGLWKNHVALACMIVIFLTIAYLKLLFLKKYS
Procedure: (§7) BCRP transfected MDCKII canine P-gp knockout cell line was cultured and plated according to manufacturer's recommendations.
as §2, §3, §4, §5, §6

[1] = MDR1 LLC-PK1 and BCRP MDCKII Permeability Assay: permeability coefficient (Papp); type: in vitro ADME; conditions: MDCK, test article 1 μM, 37° C.
Procedure: as §1, §7, §2, §3, §4, §5

[2] = system: ERK1/2(Thr202/Tyr204) phosphorylation (MEK-dependent) in A375 cells; test: Cellular Phospho-p44/42 MAPK (Erk1/2) (Thr202/Tyr204) Assay; type: cell-based; conditions: Homo sapiens, A-375, 1-hour incubation, pERK1/2 (Thr202/Tyr204) In-Cell Western normalized to GAPDH
Procedure: Inhibition of ERK1/2(Thr202/Tyr204) phosphorylation was determined by the following cellular assay, which comprises incubating cells with a compound for 1 hour and quantifying pERK signal by In-Cell Western on fixed cells and normalizing to GAPDH signal. A375 cells were obtained from the ATCC and grown in DMEM supplemented with 10% fetal bovine serum, penicillin/streptomycin, Glutamax®, non-essential amino acids, and sodium pyruvate. Cells were plated in 96-well plates at 30,000 cells/well and allowed to attach overnight at 37° C./5% CO2. Cells were treated with compounds prepared as a 10-point, 1:3 dilution series (range: 20 μM-0.05 nM; maximum concentration varied from 20 μM-1 μM), with a final DMSO concentration of 0.5%. Control wells contained either 0.5% DMSO alone (no inhibition control) or 1 μM of a potent control compound (complete inhibition control). After a 1-hour incubation, cells were fixed in 3.7% formaldehyde in dPBS (Dulbecco's phosphate-buffered saline) at room temperature for 20 minutes. Cells were then washed with dPBS and permeabilized in 100% MeOH at room temperature for 10 minutes. Following permeabilization, cells were washed in dPBS and incubated in LI-COR Blocking Buffer (LI-COR Biosciences, Cat #927-40000) for 1 hour or longer. Plates were then incubated with an antibody specific for the MEK-dependent ERK1/2 phosphorylation sites, threonine 202 and tyrosine 204 (Cell Signaling Technologies; Cat #9101), downstream of MEK in the MAP kinase signal transduction pathway, as well as GAPDH (Millipore; Cat #MAB374). pErk1/2 (Thr202/Tyr204) antibody was diluted in LI-COR blocking buffer containing 0.05% Tween-20 at 1:250; GAPDH was diluted at 1:2,500. The plates were incubated overnight at 4° C. After washing with PBS/0.05% Tween-20, the cells were incubated with fluorescently-labeled secondary antibodies (Anti-rabbit-Alexa Flour680, Invitrogen Cat #A21109; Anti-mouse-IRDye800CW, LI-COR Biosciences Cat #926-32210, both at 1:1000 dilution) for 1 hour. Cells were then washed, as above, and analyzed for fluorescence at both 680 and 800 nm wavelengths using the Odyssey CLx Infrared Imaging System (LI-COR Biosciences). Phosphorylated Erk1/2 (Thr202/Tyr204) signal was normalized to GAPDH signal for each well.

T1 sequence (P08183 whole entry): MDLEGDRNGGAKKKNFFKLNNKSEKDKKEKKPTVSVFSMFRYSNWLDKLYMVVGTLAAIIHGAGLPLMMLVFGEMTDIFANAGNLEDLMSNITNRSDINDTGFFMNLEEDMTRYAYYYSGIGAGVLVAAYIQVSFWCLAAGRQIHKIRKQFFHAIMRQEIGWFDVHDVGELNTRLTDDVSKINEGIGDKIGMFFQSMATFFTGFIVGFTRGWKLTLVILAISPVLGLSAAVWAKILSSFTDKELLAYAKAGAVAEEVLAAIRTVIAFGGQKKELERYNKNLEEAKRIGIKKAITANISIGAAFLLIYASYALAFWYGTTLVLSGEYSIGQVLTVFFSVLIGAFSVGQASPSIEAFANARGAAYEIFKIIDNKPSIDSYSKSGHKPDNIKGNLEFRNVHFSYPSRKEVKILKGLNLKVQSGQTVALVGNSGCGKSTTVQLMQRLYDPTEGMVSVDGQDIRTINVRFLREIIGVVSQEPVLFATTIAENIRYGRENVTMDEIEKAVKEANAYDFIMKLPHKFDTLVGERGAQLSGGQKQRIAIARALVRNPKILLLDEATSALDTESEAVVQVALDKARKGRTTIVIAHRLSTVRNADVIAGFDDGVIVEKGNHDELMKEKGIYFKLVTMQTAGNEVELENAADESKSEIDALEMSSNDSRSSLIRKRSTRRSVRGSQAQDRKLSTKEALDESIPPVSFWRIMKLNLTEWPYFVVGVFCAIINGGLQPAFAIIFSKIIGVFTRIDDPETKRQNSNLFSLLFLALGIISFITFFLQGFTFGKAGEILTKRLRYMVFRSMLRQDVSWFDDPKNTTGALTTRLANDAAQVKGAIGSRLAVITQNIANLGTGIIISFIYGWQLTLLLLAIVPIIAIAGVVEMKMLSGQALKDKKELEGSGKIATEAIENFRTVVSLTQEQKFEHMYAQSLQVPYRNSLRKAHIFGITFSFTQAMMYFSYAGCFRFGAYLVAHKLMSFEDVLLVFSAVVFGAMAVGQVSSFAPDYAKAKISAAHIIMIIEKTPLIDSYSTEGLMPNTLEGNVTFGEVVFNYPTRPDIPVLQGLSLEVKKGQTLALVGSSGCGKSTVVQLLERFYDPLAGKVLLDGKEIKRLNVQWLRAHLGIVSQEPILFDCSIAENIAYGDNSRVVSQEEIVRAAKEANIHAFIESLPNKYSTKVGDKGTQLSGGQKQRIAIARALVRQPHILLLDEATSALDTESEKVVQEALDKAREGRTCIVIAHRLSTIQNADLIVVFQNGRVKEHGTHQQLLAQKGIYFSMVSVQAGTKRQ

Cn1c(Nc2ccc(Br)cc2F)c2c(cc1=O)CCN(C1CC1)C2=O [Example 1]
efflux ratio at 2 h, 1 μM (P-gp (MDR1)): 1.4 | efflux ratio at 2 h, 1 μM (BCRP (hBCRP)): 1.1 | Papp at 2 h, 1 μM [1]: 27.2 ×10⁻⁶ cm/s | IC50 [2]: 562 nM

CCON1CCc2cc(=O)n(C)c(Nc3ccc(Br)cc3F)c2C1=O [Example 3, 8-((4-bromo-2-fluorophenyl)amino)-2-ethoxy-7-methyl-3,4-dihydro-2,7-naphthyridine-1,6(2H,7H)-dione]
efflux ratio at 2 h, 1 μM (P-gp (MDR1)): 1 | efflux ratio at 2 h, 1 μM (BCRP (hBCRP)): 0.9 | Papp at 2 h, 1 μM [1]: 46.2 ×10⁻⁶ cm/s | IC50 [2]: 456 nM

CSc1ccc(Nc2c3c(cc(=O)n2C)CCN(C2CC2)C3=O)c(F)c1 [Example 4, 2-cyclopropyl-8-((2-fluoro-4-(methylthio)phenyl)amino)-7-methyl-3,4-dihydro-2,7-naphthyridine-1,6(2H,7H)-dione]
efflux ratio at 2 h, 1 μM (P-gp (MDR1)): 1.3 | efflux ratio at 2 h, 1 μM (BCRP (hBCRP)): 1.1 | Papp at 2 h, 1 μM [1]: 26.1 ×10⁻⁶ cm/s | IC50 [2]: 74 nM

Cn1c(Nc2ccc(I)cc2F)c2c(cc1=O)CCN(C1CC1)C2=O [Example 5, 2-cyclopropyl-8-((2-fluoro-4-iodophenyl)amino)-7-methyl-3,4-dihydro-2,7-naphthyridine-1,6(2H,7H)-dione]
efflux ratio at 2 h, 1 μM (P-gp (MDR1)): 1.6 | efflux ratio at 2 h, 1 μM (BCRP (hBCRP)): 1 | Papp at 2 h, 1 μM [1]: 27.8 ×10⁻⁶ cm/s | IC50 [2]: 20 nM

Cn1c(Nc2ccc(I)cc2Cl)c2c(cc1=O)CCN(OCCO)C2=O [Example 9, 8-((2-chloro-4-iodophenyl)amino)-2-(2-hydroxyethoxy)-7-methyl-3,4-dihydro-2,7-naphthyridine-1,6(2H,7H)-dione]
efflux ratio at 2 h, 1 μM (P-gp (MDR1)): 7.7 | efflux ratio at 2 h, 1 μM (BCRP (hBCRP)): 3.2 | Papp at 2 h, 1 μM [1]: 27.1 ×10⁻⁶ cm/s | IC50 [2]: 3 nM

CC(C)c1ccc(Nc2c3c(cc(=O)n2C)CCN(OCCO)C3=O)c(F)c1 [Example 18, 8-((2-fluoro-4-isopropylphenyl)amino)-2-(2-hydroxyethoxy)-7-methyl-3,4-dihydro-2,7-naphthyrdine-1,6(2H,7H)-dione]
efflux ratio at 2 h, 1 μM (P-gp (MDR1)): 2.3 | efflux ratio at 2 h, 1 μM (BCRP (hBCRP)): 2 | IC50 [2]: 39 nM

Cc1c2c(c(Nc3ccc(Br)cc3F)n(C)c1=O)C(=O)NCC2 [Example 47, 8-((4-bromo-2-fluorophenyl)amino)-5,7-dimethyl-3,4-dihydro-2,7-naphthyridine-1,6(2H,7H)-dione]
efflux ratio at 2 h, 1 μM (P-gp (MDR1)): 1.3 | Papp at 2 h, 1 μM [1]: 31.5 ×10⁻⁶ cm/s | IC50 [2]: 97 nM

CSc1ccc(Nc2c3c(c(C)c(=O)n2C)CCN(OCCO)C3=O)c(F)c1 [Example 61, 8-((2-fluoro-4-(methylthio)phenyl)amino)-2-(2-hydroxyethoxy)-5,7-dimethyl-3,4-dihydro-2,7-naphthyridine-1,6(2H,7H)-dione]
efflux ratio at 2 h, 1 μM (P-gp (MDR1)): 3 | Papp at 2 h, 1 μM [1]: 26.9 ×10⁻⁶ cm/s | IC50 [2]: 11 nM

Cc1c2c(c(Nc3ccc(OC(F)F)cc3F)n(C)c1=O)C(=O)N(OCCO)CC2 [Example 62, 8-((4-(difluoromethoxy)-2-fluorophenyl)amino)-2-(2-hydroxyethoxy)-5,7-dimethyl-3,4-dihydro-2,7-naphthyridine-1,6(2H,7H)-dione]
efflux ratio at 2 h, 1 μM (P-gp (MDR1)): 5 | Papp at 2 h, 1 μM [1]: 26.1 ×10⁻⁶ cm/s | IC50 [2]: 17 nM

CSc1ccc(Nc2c3c(cc(=O)n2C)C(c2ccccc2)CNC3=O)c(F)c1 (centres unmarked) [Example 65, 8-((2-fluoro-4-(methylthio)phenyl)amino)-7-methyl-4-phenyl-3,4-dihydro-2,7-naphthyridine-1,6(2H,7H)-dione]
efflux ratio at 2 h, 1 μM (BCRP (hBCRP)): 0.8 | Papp at 2 h, 1 μM [1]: 12.5 ×10⁻⁶ cm/s | IC50 [2]: 2 nM

CC1CNC(=O)c2c1cc(=O)n(C)c2Nc1ccc(Br)cc1F (centres unmarked) [Example 66, 8-((4-bromo-2-fluorophenyl)amino)-4,7-dimethyl-3,4-dihydro-2,7-naphthyrdine-1,6(2H,7H)-dione]
efflux ratio at 2 h, 1 μM (BCRP (hBCRP)): 1 | Papp at 2 h, 1 μM [1]: 24.9 ×10⁻⁶ cm/s | IC50 [2]: 27 nM

CSc1ccc(Nc2c3c(cc(=O)n2C)C(C)CNC3=O)c(F)c1 (centres unmarked) [Example 67, 8-((2-fluoro-4-(methylthio)phenyl)amino)-4,7-dimethyl-3,4-dihydro-2,7-naphthyrdine-1,6(2H,7H)-dione]
efflux ratio at 2 h, 1 μM (BCRP (hBCRP)): 1.1 | Papp at 2 h, 1 μM [1]: 28.3 ×10⁻⁶ cm/s | IC50 [2]: 8 nM

CC1CN(OCCO)C(=O)c2c1cc(=O)n(C)c2Nc1ccc(Br)cc1F (centres unmarked) [Example 68, 8-((4-bromo-2-fluorophenyl)amino)-2-(2-hydroxyethoxy)-4,7-dimethyl-3,4-dihydro-2,7-naphthyridine-1,6(2H,7H)-dione]
efflux ratio at 2 h, 1 μM (BCRP (hBCRP)): 2.5 | Papp at 2 h, 1 μM [1]: 18.7 ×10⁻⁶ cm/s | IC50 [2]: 3 nM

CSc1ccc(Nc2c3c(cc(=O)n2C)C(C)CN(OCCO)C3=O)c(F)c1 (centres unmarked) [Example 69, 8-((2-fluoro-4-(methylthio)phenyl)amino)-2-(2-hydroxyethoxy)-4,7-dimethyl-3,4-dihydro-2,7-naphthyridine-1,6(2H,7H)-dione]
efflux ratio at 2 h, 1 μM (BCRP (hBCRP)): 2.3 | Papp at 2 h, 1 μM [1]: 19.6 ×10⁻⁶ cm/s | IC50 [2]: 2 nM
